{"source": "patent US6211209A", "about": "“Method of inhibiting connective tissue degradation” (Warner-Lambert Company, priority 1998, dated 2001)", "key": {"[1]": {"test_system": "human articular cartilage", "assay": "Human articular cartilage assay: IL-1α-induced proteoglycan loss from osteoarthritic cartilage", "assay_type": "cell-based", "details": "for % Proteoglycan Release: 30 μM, with IL-1α, mean ± SE", "source_text": "Human articular cartilage was obtained from St. Joseph Hospital in Ypsilanti, Mich.; cell culture reagents from Gibco (Grand Island, N.Y.); human recombinant Interleukin-1α (IL1α) from Genzyme (Cambridge, Mass.); DMB from Polysciences (Warrington, Pa.); Falcon 24 well flat-bottom tissue culture plates from Becton Dickinson (Lincoln Park, N.Y.); Papain from Sigma (P-3125, St. Louis, Mo.); high purity dimethyl sulfoxide from Burdic & Jackson (081-1, Distributed by Baxter Healthcare, McGraw Park, Ill.); Sarstedt vials for 96-vial aluminum racks (Sarstedt, Newton, N.C.); Cetus Pro/Pette (Perkin Elmer, Norwalk, Conn.); Biomek 1000 (Beckman, Fullerton, Calif.)\nThe assay was performed in two phases. The cartilage pieces were first incubated with IL-1α in the presence of compound. The amount of proteoglycan released was then quantified by measuring chondroitin sulfate present in the media using the 1,9-Dimethylmethylene Blue Assay (DMB).\nThe articular cartilage used in this study was obtained from osteoarthritis patients undergoing total knee or hip replacment surgery. The ages of the patients ranged from 50 to 70 years. To establish cartilage organ cultures, uniform cartilage slices measuring 11 mm×11 mm were dissected from the underlying bone using a #20 scalpel blade and placed in isotonic saline. The cartilage slices were washed in Gey's balanced salt solution and placed (one piece/well) in Falcon 24 well flat-bottom tissue culture plates (Becton Dickinson, Lincoln Park, N.J.). The cartilage organ cultures were maintained in complete Ham's F-12 (supplemented with 10% fetal calf serum, 6.5 mg/mL Hepes, 58.5 μg/mL glutamine, 200 μg/mL MgSO4, 100 units/mL Pencillin G sodium, 100 μg/mL streptomycin sulfate, and 0.25 μg/mL amphotericin B) at 37° C. in a humidified atmosphere of 95% air and 5% CO2. The cartilage cultures were allowed to equilibrate in this medium for 4 to 5 days. Just before starting the experiment, the serum-containing spent medium was removed and cartilage cultures rinsed with 1 mL F-12 Nutrient Mixture (without phenol red) in order to remove residual FCS. Each treatment group was done in triplicate. […] All the media removed from cultures was collected and analyzed using the 1,9 DMB assay. At the end of experimental period, cartilage pieces were digested with papain and analysed using the 1,9 DMB assay.\nThe ability of a compound to inhibit proteoglycan release from cartilage pieces was quantified by measuring chondroitin sulfate. […] This color change was measured using a Titertek Multiscan MCC 340 plate reader at 540 nm. […] It was necessary to dilute (1:5, 1:10) the medium before a DMB assay was performed by adding 10 μL of collected media to 290 μL DMB (16 mg dye/L of 0.1 M formate buffer, pH 3.5, containing 5 mL ethanol) and reading at 540 nm. […]"}, "72 kDa gelatinase": {"test_system": "72 kDa gelatinase", "assay": "Gelatin zymography of bovine nasal cartilage conditioned media: expression of 72 kDa gelatinase", "assay_type": "cell-based", "details": "various concentrations, FIG. 1", "method": "To evaluate the effects of the compounds of the present invention on the expression of 72 kDa and 92 kDa gelatinases, samples obtained from the bovine nasal cartilage study (described above) were subjected to gelatin zymography.\nSeparating gels (8%) were made by combining 400 μL gelatin (25 mg/mL) with: 2.5 mL Tris (1.5 M); 100 μL SDS (10%); 2.6 mL acrylamide (30%); 10 μL TEMED; 4.6 mL dH2 O; 100 μL ammonium persulfate (10%). Stacking gels (4.5%) were formed by combining: 2.5 mL Tris (0.5 M); 100 μL SDS (10%); 1.5 mL acrylamide (30%); 10 μL TEMED; 5.8 mL dH2 O; 100 μL ammonium persulfate (10%).\nBovine nasal cartilage conditioned media was diluted (1:15) using sample buffer 1X (2% SDS, 15% glycerol, 0.01% bromophenol blue, 0.25M Trizma Base, pH 6.8). Thirty microliters of each of the diluted samples and molecular weight standards were subjected to electrophoresis at 4° C. under constant current conditions (20 mA of current/gel) using Tris/Glycine running buffer (0.5 M Trizma Base, pH 8.8 using glycine, 1% SDS) that was diluted 1:20 before use.\nAfter completion of the electrophoretic procedure, the gel was first washed twice for 15 minutes in 2.5% Triton X-100. The gel was then rinsed with the gel incubation buffer (0.05 M Tris, pH 8.2, 0.005 M CaCl2, 0.5 μM ZnCl2) and incubated overnight in this buffer at 37° C. […]"}}, "data": [{"smiles": "S=c1[nH]nc(-c2ccccc2Nc2ccccc2)o1", "note": "[Compound 1, 5-(2-Phenylamino-phenyl)-3H-[1,3,4]oxadiazole-2-thione]", "values": [{"measurement": "% Proteoglycan Release", "setting": "[1]; 48 hours, n = 3 (control 3.7, IL-1α 9.0)", "result": "4.0 ± 0.2", "unit": "%"}, {"measurement": "% Proteoglycan Release", "setting": "[1]; 96 hours, n = 3 (control 5.7, IL-1α 14.4)", "result": "7.4 ± 0.4", "unit": "%"}, {"measurement": "% Proteoglycan Release", "setting": "[1]; 144 hours, n = 3 (control 7.0, IL-1α 16.9)", "result": "10.0 ± 0.8", "unit": "%"}, {"measurement": "inhibition at 30 µM", "setting": "[1]; over the course of the experiment, human osteoarthritic cartilage", "result": "> 70", "unit": "%"}, {"measurement": "effect on expression of 72 kDa gelatinase", "setting": "72 kDa gelatinase", "result": "no effect on expression of 72 kDa gelatinase"}]}]}
